The values below are quoted from earlier work in patent US20240180950A1, “Prevention and Treatment of Post-Infection Neurological Disorders and Clotting/Thrombotic Disorders” (priority 2021, published 2024).

The conditions of the series: 250 mg, 500 mg, 1000 mg, 2000 mg, and 4000 mg per day, per person, in 2 or 3 divided doses.

Each structure is given as a SMILES string.

As to `Nc1nc2c(ncn2[C@@H]2O[C@H](COP(=O)(O)O)[C@@H](O)[C@H]2O)c(=O)[nH]1` [guanosine monophosphate], the “safety of daily human doses of guanosine monophosphate” value was “safe”.
